Experimental data from ChEMBL document CHEMBL1145719, “Rigidone, a sesquiterpene o-quinone from the gorgonian Pseudopterogorgia rigida” (J Nat Prod, 1997).

Biological target: T1, Macrophage scavenger receptor types I and II (Homo sapiens, UniProt P21757)
T1 sequence (P21757 whole entry): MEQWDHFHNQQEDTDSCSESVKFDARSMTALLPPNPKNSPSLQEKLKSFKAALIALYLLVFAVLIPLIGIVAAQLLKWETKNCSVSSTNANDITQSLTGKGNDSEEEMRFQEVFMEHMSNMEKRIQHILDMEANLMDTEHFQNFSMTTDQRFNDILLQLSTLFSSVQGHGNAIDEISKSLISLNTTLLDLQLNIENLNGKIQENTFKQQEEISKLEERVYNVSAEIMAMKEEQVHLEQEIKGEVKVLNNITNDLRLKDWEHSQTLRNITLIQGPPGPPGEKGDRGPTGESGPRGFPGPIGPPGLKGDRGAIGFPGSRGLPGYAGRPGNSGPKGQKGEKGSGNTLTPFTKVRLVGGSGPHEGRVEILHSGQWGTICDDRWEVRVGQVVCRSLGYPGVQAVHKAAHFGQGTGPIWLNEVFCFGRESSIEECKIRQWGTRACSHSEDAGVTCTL
Assay: Inhibition of full-length MSR1 transfected in HEK293 cells by fluorimetry
Format: cell-based

IC50 [µM]	Structure (SMILES)
71	CC(C)=CCC[C@H](C)c1c(O)c(O)c(C)c2nc3ccccc3nc12
5.6	CC(C)=CCC[C@H](C)C1=C(O)C=C(C)C(=O)C1=O [RIGIDONE]
